Assay results from patent US12378256B2, “Heterocyclic compound” (Takeda Pharmaceutical Company Limited, priority 2017, dated 2025).

Target: T1, human M1 receptor (hCHRM1) (Homo sapiens, UniProt P11229)
T1 construct: expressed in transfected cells; host or cells: CHO-K1
T1 sequence (P11229 1-460): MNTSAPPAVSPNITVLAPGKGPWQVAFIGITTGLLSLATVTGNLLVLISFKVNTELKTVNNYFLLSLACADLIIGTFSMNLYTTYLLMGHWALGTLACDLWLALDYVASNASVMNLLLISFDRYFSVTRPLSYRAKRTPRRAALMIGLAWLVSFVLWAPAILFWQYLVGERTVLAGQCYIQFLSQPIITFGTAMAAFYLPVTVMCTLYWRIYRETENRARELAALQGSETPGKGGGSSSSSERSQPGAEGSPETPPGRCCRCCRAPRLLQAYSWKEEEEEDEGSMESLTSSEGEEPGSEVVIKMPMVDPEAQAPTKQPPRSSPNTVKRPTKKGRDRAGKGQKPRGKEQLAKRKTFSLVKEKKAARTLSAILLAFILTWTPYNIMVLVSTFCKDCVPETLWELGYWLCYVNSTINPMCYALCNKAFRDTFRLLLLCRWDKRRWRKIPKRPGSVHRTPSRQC
Test: Measurement of M1 receptor positive allosteric modulator (M1PAM) activity, calcium fluorescence with acetylcholine at EC20
Type: cell-based
Settings: for activity (%) at 10 μM: 10 μM test compound, 100% = 1 μM acetylcholine, 0% = DMSO; for EC50: CHO-K1 cells expressing hCHRM1, acetylcholine at EC20 (final 0.8-1.0 nM), read-out: IP value (inflection point in the concentration-dependent curve)
Description: Measurement of M1 Receptor Positive Allosteric Modulator (M1PAM) Activity
The activity of a test compound in the presence of acetylcholine at EC20 concentration (final concentration 0.8-1.0 nM), which affords an action corresponding to about 20% of the maximum activity, was measured as PAM activity. The method is as follows. CHO-K1 cells stably expressing a human M1 receptor (hCHRM1) were plated on a 384-well black clear bottom plate (BD Falcon) at 5,000 cells/well, and cultured in an incubator at 37° C., 5% CO2 for 1 day. The medium in the cell plate was removed, and assay buffer A containing calcium indicator (Recording medium (DOJINDO LABORATORIES), 0.1% BSA (Wako Pure Chemical Industries, Ltd.), 2.5 μg/mL Fluo-4 AM (DOJINDO LABORATORIES), 0.08% Pluronic F127 (DOJINDO LABORATORIES), 1.25 mM probenecid (DOJINDO LABORATORIES)) was added at 30 μL/well. The cells were left standing in the incubator at 37° C., 5% CO2 for 30 min, and further left standing at room temperature for 30 min. A test compound prepared by diluting with assay buffer B (HBSS (Invitrogen), 20 mM HEPES (Invitrogen), 0.1% BSA) containing 3.2-4.0 nM acetylcholine was added at 10 μL/well, and the fluorescence was measured by FDSS/μCELL (Hamamatsu Photonics K.K.) for 1 min every for 1 second. With the definition that the amount of change in the fluorescence on addition of acetylcholine (final concentration 1 μM) is 100% and that on addition of DMSO instead of a test compound is 0%, the activity (%) of the test compound was calculated, and the inflection point in the concentration-dependent curve of the test compound was calculated as IP values.

SMILES | activity (%) at 10 μM [%] | EC50 [nM]
Cn1cc(-c2ccc(C(F)c3cc(C(=O)N[C@H]4CCCC[C@@H]4O)nc4ccoc34)cn2)cn1 (stereo partly drawn) [Example 70, 7-(fluoro(6-(1-methyl-1H-pyrazol-4-yl)pyridin-3-yl)methyl)-N-((1S,2S)-2-hydroxycyclohexyl)furo[3,2-b]pyridine-5-carboxamide] | 99 | 1.2
CC(C)(C)OCCNC(=O)c1ccc(Cc2cc(C(=O)N[C@H]3CCOC[C@@H]3O)nc3c2OCC3)cc1F [Example 89, 1,5-anhydro-3-(((7-(4-((2-tert-butoxyethyl)carbamoyl)-3-fluorobenzyl)-2,3-dihydrofuro[3,2-b]pyridin-5-yl)carbonyl)amino)-2,3-dideoxy-L-threo-pentitol] | 110 | 25
O=C(N[C@H]1CCOC[C@@H]1O)c1cc(Cc2ccc(C(=O)NC[C@H]3CCCO3)c(F)c2)c2occc2n1 [Example 105, 1,5-anhydro-2,3-dideoxy-3-(((7-(3-fluoro-4-(((2R)-tetrahydrofuran-2-ylmethyl)carbamoyl)benzyl)-furo[3,2-b]pyridin-5-yl)carbonyl)amino)-L-threo-pentitol] | 105 | 4.3
COCCNC(=O)c1ccc(C(C)c2cc(C(=O)N[C@H]3CCOC[C@@H]3O)nc3ccoc23)cc1F (stereo partly drawn) [Example 111, 1,5-anhydro-2,3-dideoxy-3-(((7-(1-(3-fluoro-4-((2-methoxyethyl)carbamoyl)phenyl)ethyl)furo[3,2-b]pyridin-5-yl)carbonyl)amino)-L-threo-pentitol] | 107 | 8.8
CN1Cc2cc(Cc3cc(C(=O)N[C@H]4CCOC[C@@H]4O)nc4c3OCC4)ccc2C1=O [Example 113, 1,5-anhydro-2,3-dideoxy-3-(((7-((2-methyl-1-oxo-2,3-dihydro-1H-isoindol-5-yl)methyl)-2,3-dihydrofuro[3,2-b]pyridin-5-yl)carbonyl)amino)-L-threo-pentitol] | 109 | 21

Continued, values first:

activity (%) at 10 μM [%] | EC50 [nM] | SMILES
108 | 5.3 | CCNC(=O)c1ccc(Cc2cc(C(=O)N[C@H]3CCOC[C@@H]3O)nc3c2OCC3)cc1F [Example 81, 1,5-anhydro-2,3-dideoxy-3-(((7-(4-(ethylcarbamoyl)-3-fluorobenzyl)-2,3-dihydrofuro[3,2-b]pyridin-5-yl)carbonyl)amino)-L-threo-pentitol]
110 | 6.4 | O=C(N[C@H]1CCOC[C@@H]1O)c1cc(Cc2ccc(C(=O)NC3CC3)c(F)c2)c2c(n1)CCO2 [Example 82, 1,5-anhydro-3-(((7-(4-(cyclopropylcarbamoyl)-3-fluorobenzyl)-2,3-dihydrofuro[3,2-b]pyridin-5-yl)carbonyl)amino)-2,3-dideoxy-L-threo-pentitol]
111 | 7.6 | O=C(N[C@H]1CCOC[C@@H]1O)c1cc(Cc2ccc(C(=O)NC[C@H]3CCCO3)c(F)c2)c2c(n1)CCO2 [Example 88, 1,5-anhydro-2,3-dideoxy-3-(((7-(3-fluoro-4-(((2R)-tetrahydrofuran-2-ylmethyl)carbamoyl)benzyl)-2,3-dihydrofuro[3,2-b]pyridin-5-yl)carbonyl)amino)-L-threo-pentitol]
113 | 1.4 | O=C(N[C@H]1CCOC[C@@H]1O)c1cc(Cc2ccc(C(=O)NCc3ccc(O)cc3)c(F)c2)c2c(n1)CCO2 [Example 90, 1,5-anhydro-2,3-dideoxy-3-(((7-(3-fluoro-4-((4-hydroxybenzyl)carbamoyl)benzyl)-2,3-dihydrofuro[3,2-b]pyridin-5-yl)carbonyl)amino)-L-threo-pentitol]
107 | 11 | O=C(O)CNC(=O)c1ccc(Cc2cc(C(=O)N[C@H]3CCOC[C@@H]3O)nc3c2OCC3)cc1F [Example 96, ((2-fluoro-4-((5-(((3R,4S)-3-hydroxytetrahydro-2H-pyran-4-yl)carbamoyl)-2,3-dihydrofuro[3,2-b]pyridin-7-yl)methyl)benzoyl)amino)acetic acid]
107 | 5.1 | CC(C)SCCNC(=O)c1ccc(Cc2cc(C(=O)N[C@H]3CCOC[C@@H]3O)nc3c2OCC3)cc1F [Example 97, 1,5-anhydro-2,3-dideoxy-3-(((7-(3-fluoro-4-((2-(isopropylsulfanyl)ethyl)-carbamoyl)benzyl)-2,3-dihydrofuro[3,2-b]pyridin-5-yl)carbonyl)amino)-L-threo-pentitol]
103 | 3.8 | CN(C)C(=O)CNC(=O)c1ccc(Cc2cc(C(=O)N[C@H]3CCOC[C@@H]3O)nc3c2OCC3)cc1F [Example 100, 1,5-anhydro-2,3-dideoxy-3-(((7-(4-((2-(dimethylamino)-2-oxoethyl)carbamoyl)-3-fluorobenzyl)-2,3-dihydrofuro[3,2-b]pyridin-5-yl)carbonyl)amino)-L-threo-pentitol]
